Experimental data reported in patent publication US10329281B2, “Polymorphs and process for the preparation of quinazolinyl derivatives” (HETERO LABS LTD, priority 2015, dated 2019).

Legend:
[1] = Stability data of Afatinib dimaleate crystalline Form H3 on storage (PXRD, impurity, water content); assay type: physicochemical; design: Impurity: unit not given here
[2] = as above; assay type: physicochemical
Description: X-ray powder diffraction spectrum was measured on a bruker axs D8 advance X-ray powder diffractometer having a copper-a radiation. Adequate sample was gently flattered on a sample holder and scanned from 2 to 50 degrees two-theta, at 0.02 increment and scan speed of 0.2 Sec/Step. The sample was simply placed on the sample holder. The sample was rotated at 30 rpm at a voltage 40 KV and current 35 mA.

[3] = 25 ± 2° C./RH 60 ± 5%, 1st Month
[4] = 25 ± 2° C./RH 60 ± 5%, 2nd Month
[5] = 25 ± 2° C./RH 60 ± 5%, 3rd Month

- Impurity ([1]; 5 ± 3° C., 1st Month): 0.22
- Water Content ([1]; 5 ± 3° C., 1st Month): 1.34%
- Impurity ([1]; 5 ± 3° C., 2nd Month): 0.26
- PXRD ([1]; 5 ± 3° C., 2nd Month): Form H3
- Water Content ([1]; 5 ± 3° C., 2nd Month): 1.4%
- Impurity ([1]; 5 ± 3° C., 3rd Month): 0.27
- Water Content ([1]; 5 ± 3° C., 3rd Month): 1.26%
- Impurity ([1]; 5 ± 3° C., Initial): 0.22
- Water Content ([1]; 5 ± 3° C., Initial): 1%
- Impurity [1, 3]: 0.22
- PXRD [1, 3]: Form H3
- Water Content [1, 3]: 1.18%
- Impurity [1, 4]: 0.38
- Water Content [1, 4]: 1.35%
- Impurity [1, 5]: 0.43
- PXRD [1, 5]: Form H3
- Water Content [1, 5]: 1.56%
- Impurity ([1]; 25 ± 2° C./RH 60 ± 5%, Initial): 0.22
- PXRD ([1]; 25 ± 2° C./RH 60 ± 5%, Initial): Form H3
- Water Content ([1]; 25 ± 2° C./RH 60 ± 5%, Initial): 1%
- stability ([1]; at 5±3° C. and 25±2° C./RH (Relative humidity) 60±5%): stable
- PXRD ([2]; 5 ± 3° C., 1st Month): Form H3
- PXRD ([2]; 5 ± 3° C., 3rd Month): Form H3
- PXRD ([2]; 5 ± 3° C., Initial): Form H3
- PXRD [2, 4]: Form H3
SMILES: CN(C)C/C=C/C(=O)Nc1cc2c(Nc3ccc(F)c(Cl)c3)ncnc2cc1O[C@H]1CCOC1 [Afatinib dimaleate crystalline Form H3, 2-Butenamide, N-[4-[(3-Chloro-4-fluorophenyl)amino]-7-[[(3S)-tetrahydro-3-furanyl]oxy]-6-quinazolinyl]-4(dimethylamino),(2E)-]
